According to US10376545B2, “Methods for producing hormone secreting cells in a subject” (ViaCyte, Inc., priority 2013, dated 2019):

Assays:
[1] = test system: INS, GCG, SST, GHRL, PDX1, NKX6.1, NGN3, ID1 expression; assay: Nanostring mRNA analysis of endocrine cell cultures; assay type: cell-based, human; details: for pancreatic-lineage gene expression: agent at days 30-35 during stage 7, analyzed at d35
[2] = test system: re-aggregated endocrine cell aggregates; assay: Cell-to-cell association of re-aggregated endocrine cell aggregates (stereomicroscope images); assay type: cell-based, human; details: 10 μM Y-27632, Matrigel 0.05% v/v
Description: In Example 11 above, the cell aggregates were dissociated and re-aggregated or re-associated between stage 6 and 7. Dissociation was performed using Accutase on or around day 20 and re-aggregated in rotation culture, substantially as described in Schulz et al. supra. The re-aggregation removes certain PEC sub-populations including any remaining non-endocrine (CHGA−) sub-populations as well as other non-endocrine cells as described in more detail in Kelly et al. (2011), supra. Endocrine cells have affinity for each other, however, this interaction in vitro is relatively weak, even the re-aggregated cells at stages 6/7 were only loosely associated. So, studies were performed to test various factors and agents for their ability to increase the cell-to-cell interactions within the endocrine cell aggregates.
The combination of Y-27632 and Matrigel increased at least for example the cell-to-cell interaction of the cell aggregates over either component alone.
A differentiated culture produced substantially as described in Example 12, at day 20 was dissociated with Accutase and re-aggregated in db with 5% FBS (lower concentrations of FBS, i.e. 2% or 1% are also effective) and DNAse. Y-27632 was not included in the re-aggregation medium as doing so would result in incorporation of non-endocrine (CHGA−) sub-population as well as other non-endocrine cells into the newly formed aggregates. […]

PEC derived from hESC = assay: Flow cytometry analysis of PEC derived from hESC (CHGA, NKX6.1, PDX1 sub-populations); assay type: cell-based, human
Description: So, Activin levels less than about 25 ng/mL are acceptable for maintaining cell mass and yield. Applicant then performed flow cytometry analysis on these cell cultures to determine whether Activin at low levels during stages 3 and 4 had any effect on cell aggregate composition; see Table 14. […] Advantageously, the PDX1 only and Triple Negative sub-populations are reduced as compared to the control, particularly when Activin is used in stages 3 and 4.
To determine the cell composition of the PEC population with the combination of Activin, Heregulin and Wnt during stage 3, flow cytometry was performed after stage 4 and the PEC cellular composition is shown in Table 14. […] Data from flow cytometry supports and is consistent with data from QPCR that the combination of the three factors (AHW) in general delayed or suppressed differentiation of cells committed to the endocrine lineage (CHGA+) in PEC without affecting the production of the non-endocrine (CHGA−) sub-population. The delayed expression of these genes in vitro is consistent with their on-set (or delay) in in vivo mammalian pancreatic development, whereby NGN3 expression in endocrine differentiation occurs after the on-set of PDX1 and NKX6.1 expression in the non-endocrine (CHGA−) sub-population. Additionally, there was no compromise in the PEC mass and yield. […]
Undifferentiated human ESC were expanded and differentiated substantially as described above in Table 17 Protocol #1 for stages 1-4 and in Schulz et al. (2012) supra, except that during the three (3) days of stage 3, 4 different conditions were compared: (i) 0 noggin (“no noggin”) for all 3 days; (ii) 1 day of Noggin at 50 ng/mL and 2 days with no additional Noggin; (iii) 2 days of Noggin at 50 ng/mL and 1 day with no additional noggin; and (iv) 3 days of Noggin at 50 ng/mL. After stage 3, each of these conditions (i) through (iv) then received the standard stage 4 differentiation media cocktail according to Table 8 and Table 17, but without additional Noggin. […] Moreover, with each additional day of noggin treatment, fewer non-endocrine multipotent pancreatic progenitor sub-populations were produced (compare 90.6% with no noggin to 64.6% with 3 days of noggin treatment).

[3] = test system: hES-derived cell aggregates; assay: Cell aggregate size / cell mass in suspension culture (imaging); assay type: cell-based, human; details: 3 days of 50 ng/mL at stage 3 as compared to 2 days
Description: Preliminary studies were performed using Heregulin and FGF. In certain of these studies, Rho-kinase inhibitor, Y-27632, was included. […] An increase in cell aggregate size is advantageous in that it results in higher cell mass for later implantation and testing for function in animals.
Various growth factors were explored for their ability to suppress genes such as NGN3 during stages 3 and 4. One candidate growth factor was Activin which has diverse functions in stem cell expansion and differentiation. For example, at low levels (e.g. 10 ng/mL), Activin helps maintain pluripotent stem cell pluripotency and cell proliferation. At higher levels (e.g. 100 ng/mL) Activin acts as a differentiation growth factor responsible for definitive endoderm production at stage 1 (see e.g., Table 8). To test its effect on repressing cells committed to the endocrine lineage (CHGA+) during PEC formation, Applicant first tested Activin at a mid-level concentration of about 50 ng/mL with standard adherent differentiation.
So, Activin levels less than about 25 ng/mL are acceptable for maintaining cell mass and yield. Applicant then performed flow cytometry analysis on these cell cultures to determine whether Activin at low levels during stages 3 and 4 had any effect on cell aggregate composition; see Table 14. […]

SOX17 expression = details: 1 μg/mL of insulin; cited from earlier work
[4] = 50 ng/mL of FGF2 for 2 days at stage 3
[5] = 50 ng/mL of FGF2 for 3 days at stage 3

CC(C)(C(=O)NCC(F)(F)C(F)(F)F)C(=O)N[C@@H]1C(=O)Nc2ccccc2-c2ccccc21 [RO4929097, reference compound]
NGN3 expression ([1]; 1 μM for 2 days at stage 5, day 15 versus day 13): strongly induced NGN3 expression

C/C(=C\c1ccc(C(=O)O)cc1)c1ccc2c(c1)C(C)(C)CCC2(C)C [TTNPB, 4-[(E)-2-(5,6,7,8-Tetrahydro-5,5,8,8-tetramethyl-2-naphthalenyl)-1-propenyl]benzoic acid, reference compound]
PDX1 expression ([1]; 0.5 nM alone at stages 6 & 7 or stage 7 alone): does not appear to increase PDX1 expression

C[C@@H](N)[C@H]1CC[C@H](C(=O)Nc2ccncc2)CC1 [Y-27632]
cell associations of re-aggregated endocrine cell aggregates [2]: capable of promoting tighter cell associations

NC(=O)c1cccnc1 [nicotinamide, reference compound]
increase in the INS/GCG expression ratio ([1]; stage 6 culture conditions, analyzed at day 21): 3 fold

FGF1: acidic FGF
pancreatic-lineage gene expression [1]: upregulated GCG and SST

FGF2: Fibroblast growth factor 2
CHGA+ (Endocrine) (PEC derived from hESC; [4]): 11.9% | CHGA− NKX6.1− PDX1− (Triple Negative/Residual Cells) (PEC derived from hESC; [4]): 9.15% | CHGA−, NKX6.1+, PDX1+ (Non-endocrine) (PEC derived from hESC; [4]): 79% | CHGA+ (Endocrine) (PEC derived from hESC; [5]): 0.33% | CHGA− NKX6.1− PDX1− (Triple Negative/Residual Cells) (PEC derived from hESC; [5]): 22.7% | CHGA−, NKX6.1+, PDX1+ (Non-endocrine) (PEC derived from hESC; [5]): 76.9% | pancreatic-lineage gene expression [1]: significant increase in SST expression | cell aggregate size [3]: An increase in cell aggregate size was also observed

IGF2: Insulin-like growth factor II
INS expression ([1]; 25 or 100 ng/mL from day 17 for about 3 days, stage 6, data not shown): more capable of inducing INS expression than IGF1

insulin
SOX17 expression is reduced (SOX17 expression): 4 fold
